Assay results: the RepoRT retention time repository (doi:10.1038/s41597-019-0305-1)

Assay: RP, Waters SunFire C18, 50 × 4.6 mm, 3.5 µm, 0.5 mL/min, estimated dead time 1.1 min; A: water + 0.1% formic acid; B: acetonitrile + 0.1% formic acid; gradient (min/%B) 0/5 7/100 8/100
Conditions: stereoisomer not certain

| LC retention time [min] | SMILES |
| --- | --- |
| 6.73 | COc1cc(C)c(C)c(OC(=O)c2c(C)c(C=O)c(O)c(C=O)c2O)c1C |
| 7.83 | CCCc1cc(OC)cc(O)c1C(=O)Oc1c(OC)cc(CCC)c(C(=O)O)c1O |
| 7.26 | CC(C)CC(NC(=O)C(=C1OC(=O)C(c2ccccc2)=C1O)c1ccccc1)C(=O)O (centres undefined) |
| 7.46 | CCCCCCCCCCCCCCC(C(=O)O)C(CC(=O)O)C(=O)O (centres undefined) |
| 7.45 | CCCCCCCCCCCCC(C(=O)O)C(C)C(=O)O (centres undefined) |
| 7.09 | CCCCCC(=O)Cc1c(Oc2cc(OC)cc3cc(CCCCC)oc(=O)c23)c(O)cc(O)c1C(=O)O |
| 7.13 | CCCCCC(=O)Cc1cc(O)cc2c1C(=O)Oc1cc(O)c(C(=O)O)c(CCCCC)c1O2 |
| 6.74 | CCCCCC(=O)Cc1cc(O)cc(O)c1C(=O)Oc1cc(O)c(C(=O)O)c(CCCCC)c1 |
| 5.06 | COc1cc2oc(C)cc(=O)c2c(O)c1COC(=O)C=C(C)CC(=O)O |
| 7.64 | CCCCCC(=O)Cc1cc(O)cc2c1C(=O)Oc1cc(O)c(C(=O)O)c(CC(=O)CCCCC)c1O2 |
| 5.9 | CC(=O)OCC1OC(Oc2cc(O)c3c(=O)cc(C)oc3c2C)C(OC(C)=O)C(OC(C)=O)C1OC(C)=O (centres undefined) |
| 6.23 | COc1cc(C)c2c(c1C)Oc1c(cc(O)c(C(=O)O)c1C)OC2=O |
| 5.48 | COC(=O)c1c(C)cc(O)c(C=O)c1O |
| 6.39 | Cc1cc(O)c2c(c1)C(=O)c1cccc(O)c1C2=O |
| 7.36 | CCCCCc1cc(OC)c(O)c2c1C(=O)Oc1cc(O)c(C(=O)O)c(CCCCC)c1O2 |
| 8 | CCCCCCCCCCCCCCC(C(=O)OC)C(CC(=O)O)C(=O)O (centres undefined) |
| 6.92 | CCCC(=O)Cc1cc(OC(=O)c2c(O)cc(OC)cc2CC(=O)CCC)cc(O)c1C(=O)O |
| 4.03 | COC1=CC(=O)C(=O)c2cc3oc(C)cc(=O)c3c(OC)c21 |
| 6.75 | COC(=O)C(=C1OC(=O)C(c2ccccc2)=C1O)c1ccccc1OC |

| LC retention time [min] | SMILES |
| --- | --- |
| 4.06 | COc1cc(C)c2c(c1C=O)Oc1c(c(CO)c(O)c3c1C(O)OC3=O)OC2=O (centres undefined) |
| 4.52 | Cc1cc(=O)c2c(O)c(C)c(O)cc2o1 |
| 6.19 | CCCCCc1cc(OC)cc(O)c1C(=O)O |
| 3.41 | Cc1cc(O)cc(O)c1C(=O)O |
| 7.28 | CC(=O)OCc1c(O)c(C(=O)O)c(C)c2c1OC(=O)c1c(C)cc(O)c(C=O)c1O2 |
| 3.77 | CC(=O)c1c(O)cc(O)cc1O |
| 3.95 | Cc1cc(O)c2c(oc3cc(O)c4c(c32)COC4=O)c1C(=O)O |
| 6.74 | Cc1cc(O)c(C=O)c(O)c1C(=O)OCc1cc(O)c(C)c(O)c1C(=O)O |
| 5.37 | COC(=O)c1c(C)cc(O)c(C)c1O |
| 6.17 | CCC(C)C(NC(=O)c1ccccc1)C(=O)OCC(NC(=O)c1ccccc1)C(C)C (centres undefined) |
| 6.88 | COC12CC(=O)C(C(C)=O)=C(O)C1(C)c1c(O)c(C(C)=O)c(O)c(C)c1O2 (centres undefined) |
| 7.82 | COC(=O)C(CC(C)C)NC(=O)C(=C1OC(=O)C(c2ccccc2)=C1O)c1ccccc1 (centres undefined) |
| 6.93 | CC1=C(C(=O)O)C(CCCCCCCCCCCCC(C)CO)OC1=O (centres undefined) |
| 7.4 | Cc1cc(O)c2c(c1)oc1cc(O)cc(C)c12 |
| 2.35 | COc1cc(O)cc(C)c1C(=O)O |
| 6.82 | CC(C)CC(NC(=O)c1ccccc1)C(=O)OCC(Cc1ccccc1)NC(=O)c1ccccc1 (centres undefined) |
| 6.53 | Cc1cc(OC(=O)c2c(C)cc(OC(=O)c3c(C)cc(O)cc3O)cc2O)cc(O)c1C(=O)O |
| 7.83 | CCC(C)CC(C)C(O)C(C)C(=O)OC(C(C)CC(C)CC)C(C)C(=O)O (centres undefined) |

| SMILES | LC retention time [min] |
| --- | --- |
| CCCCCc1cc(OC)cc(O)c1C(=O)Oc1cc(O)c(C(=O)O)c(CCC)c1 | 7.47 |
| CCCc1cc(O)cc(O)c1 | 3.97 |
